Measured values reported in patent publication US20250092360A1, “METHODS AND COMPOSITIONS FOR GENERATING SOMATOSTATIN+ INTERNEURONS FROM HUMAN FOREBRAIN NEURAL PROGENITOR CELLS” (Trailhead Biosystems Inc., priority 2023, published 2025).
Where “and” joins values, the source holds several entries; their conditions need not be identical. Equal entries are not always repeated. Entries after “also recorded” stand apart in the source; their conditions may differ.

Key:
[1] = system: forebrain-committed neural progenitor cells; assay: HD-DoE stage 5, 8-factor experiment (JQ1, Indolactam-V ...): Somatostatin expression; type: cell-based, human; conditions: for impact on expression of Somatostatin: FIG. 21/22, in words; for factor contribution, expression of Somatostatin: positive, 8-factor experiment of FIG. 21
Procedure: To further guide the differentiation of forebrain-committed neural progenitor cells to somatostatin interneuron cells at stage 5, HD-DoE experiments were performed for 3 days after termination of stage 4 treatment. At this time, we focused on maximum expression of SST that was expressed in Somatostatin (+) interneurons and minimum expression of Parvalbumin that is another type of interneurons. This 8-factor experiment included JQ1, (−)-Indolactam-V, Oleic acid, BDNF, IGF-1, 2-phospho-L-Ascorbic acid, Albumax, MK2206. When the model was maximized for expression of Somatostatin, six effectors were identified that could increase its expression levels, including (−)-Indolactam-V, Oleic acid, BDNF, 2-phospho-L-ascorbic acid, Albumax, and MK2206, as shown in FIG. 21. Using dynamic profile analysis, the results of which are shown in FIG. 22, the model was modified to achieve the maximum expression level of Somatostatin and therefore (−)-Indolactam-V, BDNF, and 2-phospho-L-ascorbic acid were included while JQ-1, Oleic acid, Albumax and MK2206 were excluded. Considering the model at different optimization settings for maximum differentiation of cells toward ventral forebrain, the recipe for stage 5 of differentiation included (−)-Indolactam-V, BDNF, IGF-1, and 2-phospho-L-ascorbic acid from this HD-Doe experiment.

[2] = system: forebrain-committed neural progenitor cells; assay: Factor criticality analysis, stage 5 recipe; type: cell-based, human; conditions: for contribution to the expression of SST: stage 5, experiment of FIG. 28, in words; for effect on PVALB expression / effect on Somatostatin expression: stage 5, experiment of FIG. 30, in words
Procedure: To assess the impact of elimination of each validated factor, dynamic profile analysis was again used to compare the expression levels of genes of interest in the absence of each finalized factor while the others were present in the media.
In the stage 5 recipe, each of seven finalized factors was removed while the other six factors remained present in the media and the expression levels of SST and PVALB were assessed compared to the presence of all seven factors. […] Thus, BDNF, (−)-Indolactam-V, and 2-phosph-L-Ascorbic Acid were included in the stage 5 recipe. […] Thus, they were excluded from the recipe. […] Therefore, these effectors were included in the stage 5 recipe for SST maturation.

[3] = system: forebrain-committed neural stem cells; assay: HD-DoE stage 2, 12-factor experiment: NKX2-1 expression; type: cell-based, human; conditions: for impact on expression of NKX2-1: model / dynamic profile, in words
Procedure: To further guide the differentiation of forebrain-committed neural stem cells to ventral forebrain neural stem cells at stage 2, a HD-DoE experiment was performed for 3 days after termination of stage 1 treatment. […] This 12-factor experiment included LDN193189, BMP7, PD0325901, MK2206, A8301, XAV939, CHIR99021, Purmorphamine, SANT-1, AGN193109, TTNPB and GSI-XX. […]

[4] = system: human pluripotent stem cells; assay: HD-DoE stage 1, first 12-factor experiment: gene expression (qPCR) after 3-day treatment; type: cell-based
Source text: This example utilizes a method of High-Dimensional Design of Experiments (HD-DoE), as previously described in Bukys et al. (2020) […] 23:101346. The method employs computerized design geometries to simultaneously test multiple process inputs and offers mathematical modeling of a deep effector/response space. The method allows for finding combinatorial signaling inputs that control a complex process, such as during cell differentiation. It allows testing of multiple plausible critical process parameters, as such parameters impact output responses, such as gene expression. Because gene expression provides hallmark features of the phenotype of, for example, a human cell, the method can be applied to identify, and understand, which signaling pathways control cell fate. In the current example, the HD-DOE method was applied with the intent to find conditions for induction of […] neural progenitor-expressed genes, directly from the pluripotent stem cell state. To develop the recipe for each stage, the impact of agonists and antagonists of multiple signaling pathways (herein called effectors) on the expression of two sets of 53 pre-selected genes, after a 3-day treatment, has been tested and modeled. These effectors are small molecules or proteins that are commonly used during stepwise differentiation of stem cells to specific fates. Choice of the effectors were based on current literature on neural induction in forebrain region of developing brain and differentiation of stem cells to neural progenitors. To test the effectors, experiments with at least 8 factors were designed that can assess the response of cells to 48 or more different combinations of effectors in a range of concentrations. To analyze the models, we focused on expression of genes involved in development and patterning of the anterior neuroectoderm and forebrain including OTX2 (Hoch et al. (2015) Cell Reports 12:482-494), SIX3 (Lagutin et al. (2003) Genes & Development 17:368-379) and FEZF2 (Zhang et al. (2014) Development 141:4794-[…]). At later stages we focused on dorsoventral patterning of telencephalon and gene expressed in ventral forebrain including NKX2-1 and absence of PAX6 which is a dorsal forebrain marker (Stoykova et al. (2000) J. Neurosci. 20:8042-8050). The impact of each effector on gene expression level is defined by a parameter called factor contribution that is calculated for each effector during the modeling. To identify the recipe for stage 1 of differentiation, 96 different combinations of effectors generated using Design-of-Experiments compression through D-optimality were robotically prepared. The effector combinations were prepared in a basal media and were subsequently added to the cells, which were then allowed to differentiate. Three days later RNA extraction was performed, and gene expression was obtained using quantitative PCR analysis. The data were normalized and modeled using partial least squares regression analysis to the effector design, resulting in the generation of gene-specific models, which after model tuning for maximal Q2 predictive power, provided explanation of the effectors ability to control the expression of individual genes, combinatorically, and individually. Solutions within the tested space could then be explored to address desirability. Optimizing for maximal expression of SIX3 at 3300 and FEZF2 1355 expression values led to robust solutions. This model was derived from testing 12 effectors including AGN193109, LDN193189, CHIR99021, XAV939, IGF2, Purmorphamine, 4-oxo-RA, TTNPB, SR11237, FGF8, PD0325901 and […]. […] The model was also optimized for maximum expression of FEZF2 separately at 3576 expression value to find any additional factors that can boost expression of forebrain genes. […] To find the set of factors that have the potential to optimize all 3 genes in this experiment, a new assessment was done through dynamic profile analysis with focus on maximal expression of OTX2, FEZF2 and SIX3.

[5] = system: forebrain-committed neural progenitor cells; assay: HD-DoE stage 5, 12-factor experiment (96 combinatorial media): Somatostatin expression; type: cell-based, human; conditions: for impact on expression of Somatostatin: FIG. 26 dynamic profile, in words; for factor contribution, expression of Somatostatin: positive, 12-factor experiment of FIG. 25
Procedure: In another HD-DoE experiment, the results of which are shown in FIG. 25, cells were differentiated in 96 different combinatorial media made of 12 factors. These cells were treated with stage 1 to stage 4 medium for a total of 12 days prior to the experiment. […] In this model, we focused on maximum expression of Somatostatin gene expressed in somatostatin (+) interneurons. When the model was optimized for maximum expression of Somatostatin, BDNF, 2-phosph-L-Ascorbic Acid, O-LPA, N2 and Prostratin had the highest factor contributions, 1.75, 10.6, 2.7, 9.2 and 6.4 respectively. […]

[6] = system: forebrain-committed neural progenitor cells; assay: HD-DoE stage 5, 8-factor experiment (GDNF, BDNF, NT-3 ...): Somatostatin expression; type: cell-based, human
Procedure: To investigate the effects of other factors on differentiation of forebrain-committed neural progenitor cells to Somatostatin interneuron cells, an additional HD-DoE experiment was performed for 3 days on cells that were treated with stage 1 to stage 4 medium for a total of 12 days prior to the new experiment. This experiment, the results of which are shown in FIG. 23, included eight effectors, GDNF, BDNF, NT-3, ß-NGF, Linoleic acid, 5-Cholesten-3β, LIF and TGF-β3. In this model, we focused on maximum expression of Somatostatin gene expressed in Somatostatin (+) interneurons (Urban-Ciecko and Barth (2016) Nature Reviews Neurosci. 17:401-409). When the model was optimized for maximum expression of Somatostatin, BDNF, NT-3, beta-NGF and Linoleic acid had the highest factor contributions, 25.7, 2, 19.9, 23.5, respectively.
Therefore, the latter were excluded in the recipe.

Molecule: (−)-Indolactam-V
- impact on expression of Somatostatin [1]: increase; also recorded: positive impact
- factor contribution, expression of Somatostatin [1]: 5.2
- contribution to the expression of SST [2]: positive contributions

Molecule: Cc1nn(-c2ccccc2)c(C)c1/C=N/N1CCN(Cc2ccccc2)CC1 [SANT-1]
- impact on expression of NKX2-1 [3]: negative impact
- factor contribution, expression of NKX2-1 ([3]; negative role, model optimized for maximum NKX2-1): 26.3

Molecule: C/C(=C\c1ccc(C(=O)O)cc1)c1ccc2c(c1)C(C)(C)CCC2(C)C [TTNPB]
- impact on expression of NKX2-1 [3]: negative impact
- factor contribution, important input for high expression of SIX3 ([4]; FIG. 2 legend): 23.7
- impact on expression of OTX2 ([4]; dynamic profile / model, in words): negative impact
- impact on expression of SIX3 ([4]; dynamic profile analysis, in words): negative impact
- factor contribution, expression of SIX3 ([4]; negative effect, model optimized for maximal SIX3): 21
- factor contribution, expression of OTX2 ([4]; negative impact, model optimized for maximum OTX2): 29 and 28.8
- factor contribution, expression of FEZF2 ([4]; positive impact, model optimized for maximum FEZF2 at 3576): 24

Molecule: CC(=O)C(=O)[O-].[Na+] [Sodium Pyruvate]
- impact on expression of Somatostatin [5]: significant negative impact

Molecule: CC(=O)O[C@@]12C[C@@H](C)[C@@]3(O)[C@@H](C=C(CO)C[C@]4(O)C(=O)C(C)=C[C@@H]34)[C@@H]1C2(C)C [Prostratin]
- impact on expression of Somatostatin [5]: significant positive effect; also recorded: positive impact
- factor contribution, expression of Somatostatin [5]: 6.4
- effect on PVALB expression [2]: not to PVALB expression
- effect on Somatostatin expression [2]: contribute

Molecule: COC(=O)CCC(=O)C(=O)OC [dm-αKG]
- impact on expression of Somatostatin [5]: significant negative impact

Molecule: Cc1cc(SCc2sc(-c3ccc(C(F)(F)F)c(F)c3)nc2C)ccc1OCC(=O)O [GW0742]
- impact on expression of Somatostatin [5]: significant negative impact

Molecule: O=C1O[C@H]([C@@H](O)CO)C(O)=C1OP(=O)(O)O [2-phospho-L-ascorbic acid]
- impact on expression of Somatostatin [1]: increase
- impact on expression of Somatostatin ([1]; listed as 2-phospho-L-Ascorbic acid): positive impact
- factor contribution, expression of Somatostatin [1]: 4
- impact on expression of Somatostatin ([5]; listed as 2-phosph-L-Ascorbic Acid): significant positive effect; also recorded: positive impact
- factor contribution, expression of Somatostatin [5]: 10.6
- contribution to the expression of SST [2]: positive contributions
- effect on PVALB expression [2]: not to PVALB expression
- effect on Somatostatin expression [2]: contribute

Molecule: CCCCCCCC/C=C\CCCCCCCC(=O)OC[C@@H](O)COP(=O)(O)O [O-LPA]
- factor contribution, expression of Somatostatin [5]: 2.7

B1: BDNF: brain-derived neurotrophic factor; BDNF pathway agonist (protein, UniProt P23560 129-247, looked up)
Neurotrophic factor BDNF: HSDPARRGELSVCDSISEWVTAADKKTAVDMSGGTVTVLEKVPVSKGQLKQYFYETKCNPMGYTKEGCRGIDKRHWNSQCRTTQSYVRALTMDSKKRIGWRFIRIDTSCVCTLTIKRGR
modifications: Neurotrophic factor BDNF
notes: brain-derived neurotrophic factor; BDNF pathway agonist
- impact on expression of Somatostatin [1]: increase; also recorded: positive impact
- factor contribution, expression of Somatostatin [1]: 8.1
- impact on expression of Somatostatin [5]: significant positive effect; also recorded: positive impact
- factor contribution, expression of Somatostatin [5]: 1.75 and 1.7
- contribution to the expression of SST [2]: positive contributions
- effect on expression of Somatostatin ([2]; stage 5, experiment of FIG. 29, in words): contribute to the maximal expression
- effect on PVALB expression [2]: not to PVALB expression
- effect on Somatostatin expression [2]: contribute
- impact on expression of Somatostatin ([6]; FIG. 24 dynamic profile, in words): significant effect; also recorded: positive effect; also recorded: positive impact
- factor contribution, expression of Somatostatin ([6]; positive, 8-factor experiment of FIG. 23): 25.7
